The text below walks through data of BindingDB's records for doi:10.1021/jm030040o (Schering-Plough Research Institute, 2003).

The structures appear in SMILES notation.

The assay concerns the target Genome polyprotein (Hepatitis C virus). Nature of the assay: Binding constant against hepatitis C virus (HCV) protease.
Take `CC[C@H](C)[C@H](NC(=O)[C@H](CC(C)C)NC(=O)[C@@H](CCC(=O)O)NC(=O)[C@H](CC(=O)O)NC(C)=O)C(=O)N[C@@H](CC1CCCCC1)C(=O)N[C@@H](CCS)C(=O)O` [2-[(S)-(S)-2-((R)-2-{(S)-2-[(R)-2-((S)-2-Acetylamino-3-carboxy-propionylamino)-4-(S)-carboxy-butyrylamino]-4-methyl-pentanoylamino}-3-methyl-pentanoylamino)-3-cyclohexyl-propionylamino]-4-mercapto-butyric acid]: the affinity, expressed as Ki, was 80000 nM.

For `CC[C@H](NC(=O)[C@H](CC1CCCCC1)NC(=O)[C@@H](NC(=O)[C@H](CC(C)C)NC(=O)[C@@H](CCC(=O)O)NC(=O)[C@H](CC(=O)O)NC(C)=O)[C@@H](C)CC)C(=O)O` [2-[(S)-(S)-2-((R)-2-{(S)-2-[(R)-2-((S)-2-Acetylamino-3-carboxy-propionylamino)-4-(S)-carboxy-butyrylamino]-4-methyl-pentanoylamino}-3-methyl-pentanoylamino)-3-cyclohexyl-propionylamino]-butyric acid], the Ki was 600 nM.

On to `CCCC[C@H](NC(=O)[C@H](CC1CCCCC1)NC(=O)[C@@H](NC(=O)[C@H](CC(C)C)NC(=O)[C@@H](CCC(=O)O)NC(=O)[C@H](CC(=O)O)NC(C)=O)[C@@H](C)CC)C(=O)O` [2-[(S)-(S)-2-((R)-2-{(S)-2-[(R)-2-((S)-2-Acetylamino-3-carboxy-propionylamino)-4-(S)-carboxy-butyrylamino]-4-methyl-pentanoylamino}-3-methyl-pentanoylamino)-3-cyclohexyl-propionylamino]-hexanoic acid], for which the Ki was 2000 nM.

`CCC[C@H](NC(=O)[C@H](CC1CCCCC1)NC(=O)[C@@H](NC(=O)[C@H](CC(C)C)NC(=O)[C@@H](CCC(=O)O)NC(=O)[C@H](CC(=O)O)NC(C)=O)[C@@H](C)CC)C(=O)O` [(S)-2-[(S)-2-((R)-2-{(S)-2-[(R)-2-((S)-2-Acetylamino-3-carboxy-propionylamino)-4-(S)-carboxy-butyrylamino]-4-methyl-pentanoylamino}-3-methyl-pentanoylamino)-3-cyclohexyl-propionylamino]-pentanoic acid] showed a Ki of 130 nM.

Compound `CCSC[C@H](NC(=O)[C@H](CC1CCCCC1)NC(=O)[C@@H](NC(=O)[C@H](CC(C)C)NC(=O)[C@@H](CCC(=O)O)NC(=O)[C@H](CC(=O)O)NC(C)=O)[C@@H](C)CC)C(=O)O` [(S)-4-((S)-2-Acetylamino-3-carboxy-propionylamino)-4-((R)-(S)-1-{1-[(R)-(R)-1-((S)-1-carboxy-2-ethylsulfanyl-ethylcarbamoyl)-2-cyclohexyl-ethylcarbamoyl]-2-methyl-butylcarbamoyl}-3-methyl-butylcarbamoyl)-butyric acid] yielded a Ki of 5000 nM.

With `CC[C@H](C)[C@H](NC(=O)[C@H](CC(C)C)NC(=O)[C@@H](CCC(=O)O)NC(=O)[C@H](CC(=O)O)NC(C)=O)C(=O)N[C@@H](CC1CCCCC1)C(=O)N[C@@H](CS)C(=O)O` [(S)-4-((S)-2-Acetylamino-3-carboxy-propionylamino)-4-((R)-(S)-1-{1-[(R)-(R)-1-((S)-1-carboxy-2-mercapto-ethylcarbamoyl)-2-cyclohexyl-ethylcarbamoyl]-2-methyl-butylcarbamoyl}-3-methyl-butylcarbamoyl)-butyric acid], the affinity, expressed as Ki, was 120 nM.

On to `CC[C@H](C)[C@H](NC(=O)[C@H](CC(C)C)NC(=O)[C@@H](CCC(=O)O)NC(=O)[C@H](CC(=O)O)NC(C)=O)C(=O)N[C@@H](CC1CCCCC1)C(=O)N[C@@H](CSC)C(=O)O` [(S)-4-((S)-2-Acetylamino-3-carboxy-propionylamino)-4-((R)-(S)-1-{1-[(R)-(R)-1-((S)-1-carboxy-2-methylsulfanyl-ethylcarbamoyl)-2-cyclohexyl-ethylcarbamoyl]-2-methyl-butylcarbamoyl}-3-methyl-butylcarbamoyl)-butyric acid], for which the Ki was found to be 500 nM.

For orientation: Ki means a measure of affinity in units of concentration, obtained from inhibition or displacement.
